Data published in patent US5519022A, “α, α dialkylbenzyl derivatives” (Imperial Chemical Industries Plc, priority 1991, dated 1996).

Target: T1, 5-LO (Homo sapiens, UniProt P09917)
T1 construct: effects of a test compound against 5-LO and also cyclooxygenase in the presence of blood cells and proteins; endogenous in cells; host or cells: blood cells in heparinised human blood challenged with calcium ionophore A23187
T1 sequence (P09917 1-674): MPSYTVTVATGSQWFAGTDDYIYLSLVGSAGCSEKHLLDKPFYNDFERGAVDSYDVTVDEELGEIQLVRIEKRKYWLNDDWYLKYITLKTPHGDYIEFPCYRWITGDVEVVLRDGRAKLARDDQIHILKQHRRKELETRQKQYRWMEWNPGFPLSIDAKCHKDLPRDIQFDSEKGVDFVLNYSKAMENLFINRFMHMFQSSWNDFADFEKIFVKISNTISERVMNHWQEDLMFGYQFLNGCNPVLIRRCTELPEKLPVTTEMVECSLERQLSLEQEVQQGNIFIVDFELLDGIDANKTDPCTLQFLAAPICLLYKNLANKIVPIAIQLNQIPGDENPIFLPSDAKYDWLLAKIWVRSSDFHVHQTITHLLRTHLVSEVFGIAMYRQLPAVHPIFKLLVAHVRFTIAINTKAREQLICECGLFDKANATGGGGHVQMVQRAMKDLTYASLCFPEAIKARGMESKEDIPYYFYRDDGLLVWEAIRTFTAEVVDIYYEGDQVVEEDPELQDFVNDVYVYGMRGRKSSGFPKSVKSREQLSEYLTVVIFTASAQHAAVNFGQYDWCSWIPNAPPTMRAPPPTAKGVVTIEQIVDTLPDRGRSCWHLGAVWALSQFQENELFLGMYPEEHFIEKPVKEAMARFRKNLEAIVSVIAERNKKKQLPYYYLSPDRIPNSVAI
Assay: Test a) in vitro inhibition of LTB4 production in A23187-challenged heparinised human blood (radioimmunoassay)
Assay type: cell-based
Settings: calcium ionophore A23187 challenge
Description: a) An in vitro assay system involving incubating a test compound with heparinised human blood, prior to challenge with the calcium ionophore A23187 and then indirectly measuring the inhibitory effects on 5-LO by assaying the amount of LTB4 using specific radioimmunoassays described by Carey and Forder (F. Carey and R. A. Forder, Prostaglandins, Leukotrienes Med., 1986, 22, 57; Prostaglandins, 198, 28, 666; Brit. J. Pharmacol. 1985, 84, 34P) which involve the use of a protein-LTB4 conjugate produced using the procedure of Young et alia (Prostaglandins, 1983, 26(4), 605-613). The effects of a test compound on the enzyme cyclooxygenase (which is involved in the alternative metabolic pathway for arachidonic acid and gives rise to prostaglandins, thromboxanes and related metabolites) may be measured at the same time using the specific radioimmunoassay for thromboxane B2 (TxB2) described by Carey and Forder (see above). This test provides an indication of the effects of a test compound against 5-LO and also cyclooxygenase in the presence of blood cells and proteins. It permits the selectivity of the inhibitory effect on 5-LO or cyclooxygenase to be assessed.

Row | IC50 | Compound
1 | 80 nM | CCC(C)(C#N)c1cccc(OCc2ccc3c(ccc(=O)n3C)c2)c1 (stereo not shown) [2-methyl-2-[3-(1-methyl-2-oxo-1,2-dihydroquinolin-6-ylmethoxy)phenyl]butyronitrile]
2 | 50 nM | C=CCC(C#N)(CC=C)c1cccc(OCc2ccc3c(ccc(=O)n3C)c2)c1 [2,2-diallyl-2-[3-(1-methyl-2-oxo-1,2-dihydroquinolin-6-ylmethoxy)phenyl]acetonitrile]
3 | 150 nM | CCC(CC)(C(C)=O)c1cccc(OCc2ccc3c(ccc(=O)n3C)c2)c1 [3-ethyl-3-[3-(1-methyl-2-oxo-1,2-dihydroquinolin-6-ylmethoxy)phenyl]pentan-2-one]
4 | 500 nM | CCC(C#N)(CC)c1cccc(OCc2ccc3c(ccc(=O)n3C)c2)c1 [2-ethyl-2-[3-(1-methyl-2-oxo-1,2-dihydroquinolin-6-ylmethoxy)phenyl]butyronitrile]
